# Experimental data: patent US8883841B2, “Oncogenic ras-specific cytotoxic compound and methods of use thereof” (The Board of Regents of the University of Texas System, priority 2005, dated 2014)
# Entries after “also recorded” stand apart in the source; their conditions may differ. Like-named read-outs stand apart in the source and are kept apart here.
# Assays:
# Heb44 = experiment: Cell viability, Heb44 kidney cells; format: cell-based
# OVCAR-5 = experiment: NCI in-vitro testing, OVCAR-5 (Ovarian Cancer)
# HCT-15 = experiment: NCI in-vitro testing, HCT-15 (Colon Cancer)
# HKE3 = experiment: Cell viability, HKE3 colon cancer cells; format: cell-based, human; conditions: for IC50: Homo sapiens; for IC50 (−LogM): HKE3, Colon
# H1395 = experiment: Cell viability, H1395 lung cancer cells; format: cell-based, human
# HCT-116 = experiment: NCI in-vitro testing, HCT-116 (Colon Cancer)
# Ovcar3 = experiment: Cell viability, Ovcar3 ovary cancer cells; format: cell-based
# H226B cells = experiment: Cell viability, H226B lung cancer cells; format: cell-based, human; conditions: for IC50 (−LogM): H226B, Lung
# Capanc-1 = experiment: Cell viability, Capanc-1 pancreatic cancer cells; format: cell-based, human
# A549CK8 = experiment: Cell viability, A549CK8 lung cancer cells; format: cell-based, human
# H460 cells = conditions: for IC50 in H460 cells: Table 1, value is the negative log10 of mol/L
# miapac = experiment: Cell viability, miapac pancreatic cancer cells; format: cell-based, human
# A549 cells = experiment: Cell viability, A549 lung cancer cells; format: cell-based, human
# H1299 cells = experiment: Cell viability, H1299 lung cancer cells; format: cell-based, human
# MCF7 = experiment: NCI in-vitro testing, MCF7 (Breast Cancer)
# DLD1 = experiment: Cell viability, DLD1 colon cancer cells; format: cell-based, human
# CT116P53 = experiment: Cell viability, CT116P53 colon cancer cells; format: cell-based, human
# H2122 = experiment: Cell viability, H2122 lung cancer cells; format: cell-based, human
# Hct116 = experiment: Cell viability, Hct116 colon cancer cells; format: cell-based, human
# H2009 = experiment: Cell viability, H2009 lung cancer cells; format: cell-based, human
# KM12 = experiment: NCI in-vitro testing, KM12 (Colon Cancer); conditions: KM12
# MALME-3M = experiment: NCI in-vitro testing, MALME-3M (Melanoma)
# SK-MEL-5 = experiment: NCI in-vitro testing, SK-MEL-5 (Melanoma)
# Heb46 = experiment: Cell viability, Heb46 kidney cells; format: cell-based
# MDA-MB-231/ATCC = experiment: NCI in-vitro testing, MDA-MB-231/ATCC (Breast Cancer)
# H1933 = experiment: Cell viability, H1933 lung cancer cells; format: cell-based, human
# AsPC-1 = experiment: Cell viability, AsPC-1 pancreatic cancer cells; format: cell-based, human
# H23 = experiment: Cell viability, H23 lung cancer cells; format: cell-based, human; conditions: H23, Lung
# [1] = Homo sapiens, read-out: IC50 (−LogM) (converted)
structure (smiles),measurement,setting,value
"O=Cc1cn(Cc2cccc(Cl)c2)c2ccccc12 [Oncrasin K027, 1-(3-chlorobenzyl)-1H-indole-3-carbaldehyde]",IC50,Heb44,0.0631 µM
same,GI50,"OVCAR-5; Homo sapiens, OVCAR-5",< 0.01 µM
same,CC50,"OVCAR-5; Homo sapiens, OVCAR-5, read-out: LC50",> 100 µM
same,TGI,OVCAR-5; OVCAR-5,3.72E−7 Molar
same,Percent Growth,"OVCAR-5; OVCAR-5, Log10 Concentration −4.0 Molar",−50%
same,Percent Growth,"OVCAR-5; OVCAR-5, Log10 Concentration −5.0 Molar",−23%
same,Percent Growth,"OVCAR-5; OVCAR-5, Log10 Concentration −6.0 Molar",−7%
same,Percent Growth,"OVCAR-5; OVCAR-5, Log10 Concentration −7.0 Molar",10%
same,Percent Growth,"OVCAR-5; OVCAR-5, Log10 Concentration −8.0 Molar",43%
same,TGI,HCT-15; HCT-15,2.58E−6 Molar
same,Percent Growth,"HCT-15; HCT-15, Log10 Concentration −4.0 Molar",−31%
same,Percent Growth,"HCT-15; HCT-15, Log10 Concentration −5.0 Molar",21%
same,Percent Growth,"HCT-15; HCT-15, Log10 Concentration −6.0 Molar",69%
same,Percent Growth,"HCT-15; HCT-15, Log10 Concentration −7.0 Molar",90%
same,Percent Growth,"HCT-15; HCT-15, Log10 Concentration −8.0 Molar",99%
same,GI50,"HCT-15; Homo sapiens, HCT-15",0.0252 µM
same,CC50,"HCT-15; Homo sapiens, HCT-15, read-out: LC50",> 100 µM
same,IC50,"HKE3; read-out: IC50 (−LogM), HKE3, Colon, first HKE3 line (converted)",1 µM
same,IC50,"HKE3; read-out: IC50 (−LogM), HKE3, Colon, second HKE3 line (converted)",1.26 µM
same,IC50,"H1395; Homo sapiens, NCI-H1395, read-out: IC50 (−LogM) (converted)",< 31.6 µM
same,TGI,HCT-116; HCT-116,1.06E−5 Molar
same,Percent Growth,"HCT-116; HCT-116, Log10 Concentration −4.0 Molar",−84%
same,Percent Growth,"HCT-116; HCT-116, Log10 Concentration −5.0 Molar",2%
same,Percent Growth,"HCT-116; HCT-116, Log10 Concentration −6.0 Molar",10%
same,Percent Growth,"HCT-116; HCT-116, Log10 Concentration −7.0 Molar",30%
same,Percent Growth,"HCT-116; HCT-116, Log10 Concentration −8.0 Molar",68%
same,GI50,"HCT-116; Homo sapiens, HCT-116",0.0294 µM
same,CC50,"HCT-116; Homo sapiens, HCT-116, read-out: LC50",60.6 µM
same,IC50,"Ovcar3; Homo sapiens, OVCAR-3",3.16 µM
same,IC50,"H226B cells; Homo sapiens, read-out: IC50 (−LogM), H226B, Lung, first H226B line (converted)",0.316 µM
same,IC50,"H226B cells; Homo sapiens, read-out: IC50 (−LogM), H226B, Lung, second H226B line (converted)",3.98 µM
same,IC50,"Capanc-1; Homo sapiens, Pancreatic cancer cell, read-out: IC50 (−LogM), capanc1, Pancrease (converted)",31.6 µM
same,IC50,A549CK8; [1],15.8 µM
same,IC50 in H460 cells,H460 cells; listed as K27,7
same,IC50 in H460 cells,H460 cells,8.43
same,IC50,"miapac; Homo sapiens, Pancreatic cancer cell, read-out: IC50 (−LogM) (converted)",< 31.6 µM
same,IC50,"A549 cells; Homo sapiens, A549, read-out: IC50 (−LogM), A549, Lung (converted)",10 µM
same,IC50,"H1299 cells; Homo sapiens, NCI-H1299, read-out: IC50 (−LogM), h1299, Lung (converted)",15.8 µM
same,GI50,"MCF7; Homo sapiens, MCF7",0.0873 µM
same,CC50,"MCF7; Homo sapiens, MCF7, read-out: LC50",> 100 µM
same,TGI,MCF7; MCF7,2.75E−5 Molar
same,Percent Growth,"MCF7; MCF7, Log10 Concentration −4.0 Molar",−10%
same,Percent Growth,"MCF7; MCF7, Log10 Concentration −5.0 Molar",8%
same,Percent Growth,"MCF7; MCF7, Log10 Concentration −6.0 Molar",10%
same,Percent Growth,"MCF7; MCF7, Log10 Concentration −7.0 Molar",45%
same,Percent Growth,"MCF7; MCF7, Log10 Concentration −8.0 Molar",75%
same,IC50,"DLD1; Homo sapiens, DLD-1, read-out: IC50 (−LogM) (converted)",< 31.6 µM
same,IC50,CT116P53; [1],< 31.6 µM
same,IC50,"H2122; Homo sapiens, NCI-H2122, read-out: IC50 (−LogM) (converted)",0.631 µM
same,IC50,"Hct116; Homo sapiens, HCT-116, read-out: IC50 (−LogM), Hct116, Colon (converted)",3.98 µM
same,IC50,"H2009; Homo sapiens, NCI-H2009, read-out: IC50 (−LogM) (converted)",< 31.6 µM
same,TGI,KM12,4.15E−5 Molar
same,Percent Growth,KM12; Log10 Concentration −4.0 Molar,−54%
same,Percent Growth,KM12; Log10 Concentration −5.0 Molar,87%
same,Percent Growth,KM12; Log10 Concentration −6.0 Molar,102%
same,Percent Growth,KM12; Log10 Concentration −7.0 Molar,113%
same,Percent Growth,KM12; Log10 Concentration −8.0 Molar,108%
same,GI50,"MALME-3M; Homo sapiens, Malme-3M",5.17 µM
same,CC50,"MALME-3M; Homo sapiens, Malme-3M, read-out: LC50",82 µM
same,TGI,MALME-3M; MALME-3M,2.37E−5 Molar
same,Percent Growth,"MALME-3M; MALME-3M, Log10 Concentration −4.0 Molar",−58%
same,Percent Growth,"MALME-3M; MALME-3M, Log10 Concentration −5.0 Molar",35%
same,Percent Growth,"MALME-3M; MALME-3M, Log10 Concentration −6.0 Molar",88%
same,Percent Growth,"MALME-3M; MALME-3M, Log10 Concentration −7.0 Molar",114%
same,Percent Growth,"MALME-3M; MALME-3M, Log10 Concentration −8.0 Molar",105%
same,GI50,"SK-MEL-5; Homo sapiens, SK-MEL-5",4.97 µM
same,CC50,"SK-MEL-5; Homo sapiens, SK-MEL-5, read-out: LC50",45.5 µM
same,TGI,SK-MEL-5; SK-MEL-5,1.95E−5 Molar
same,Percent Growth,"SK-MEL-5; SK-MEL-5, Log10 Concentration −4.0 Molar",−97%
same,Percent Growth,"SK-MEL-5; SK-MEL-5, Log10 Concentration −5.0 Molar",40%
same,Percent Growth,"SK-MEL-5; SK-MEL-5, Log10 Concentration −6.0 Molar",74%
same,Percent Growth,"SK-MEL-5; SK-MEL-5, Log10 Concentration −7.0 Molar",92%
same,Percent Growth,"SK-MEL-5; SK-MEL-5, Log10 Concentration −8.0 Molar",95%
same,IC50,Heb46,2 µM
same,GI50,"MDA-MB-231/ATCC; Homo sapiens, MDA-MB-231",11 µM
same,CC50,"MDA-MB-231/ATCC; Homo sapiens, MDA-MB-231, read-out: LC50",> 100 µM
same,TGI,MDA-MB-231/ATCC; MDA-MB-231/ATCC,4.23E−5 Molar
same,Percent Growth,"MDA-MB-231/ATCC; MDA-MB-231/ATCC, Log10 Concentration −4.0 Molar",−32%
same,Percent Growth,"MDA-MB-231/ATCC; MDA-MB-231/ATCC, Log10 Concentration −5.0 Molar",55%
same,Percent Growth,"MDA-MB-231/ATCC; MDA-MB-231/ATCC, Log10 Concentration −6.0 Molar",109%
same,Percent Growth,"MDA-MB-231/ATCC; MDA-MB-231/ATCC, Log10 Concentration −7.0 Molar",120%
same,Percent Growth,"MDA-MB-231/ATCC; MDA-MB-231/ATCC, Log10 Concentration −8.0 Molar",105%
same,IC50,H1933; [1],< 31.6 µM
same,IC50,"AsPC-1; Homo sapiens, ASPC1, read-out: IC50 (−LogM), ASPC1, Pancrease (converted)",15.8 µM
"O=Cc1cn(Cc2ccc(Cl)cc2)c2ccccc12 [Oncrasin K001, 1H-Indole-3-carboxaldehyde, 1-[(4-chlorophenyl)methyl]-(9CI)]",IC50 (−LogM),Heb44,8 −LogM
same,IC50 (−LogM),HKE3; first HKE3 line,6.4 −LogM
same,IC50 (−LogM),HKE3; second HKE3 line,6 −LogM
same,IC50 (−LogM),"H1395; H1395, Lung",>4.5 −LogM
same,effect on H1395 cells,H1395; wild-type Ras,minimal effect
same,IC50 (−LogM),Ovcar3,5.6 −LogM
same,IC50 (−LogM),H226B cells; first H226B line,7 −LogM
same,IC50 (−LogM),H226B cells; second H226B line,5.6 −LogM
same,IC50,"H226B cells; Ras status not known, read-out: IC50, H226B cells",1.2 µM
same,effect on H226b cells,H226B cells; ras status unknown,effective
same,IC50,"Capanc-1; K-Ras G12V mutation, read-out: IC50, Capanc-1",0.42 µM
same,IC50 (−LogM),"Capanc-1; capanc1, Pancrease",5 −LogM
same,IC50 (−LogM),"A549CK8; A549CK8, Lung",5.8 −LogM
same,IC50 (−LogM),"H460 cells; H460, Lung",6.6 −LogM
same,concentration that effectively kills H460 cells,H460 cells; K-ras mutant lung cancer cells,1 µM
same,IC50 in H460 cells,H460 cells,6.6
same,effect on H460 cells,H460 cells; lung cancer cell line,highly effective
same,IC50,"H460 cells; read-out: IC50, H460 cells, K-Ras Q61H",0.25 µM
same,IC50 (−LogM),"miapac; miapac, Pancrease",>4.5 −LogM
same,IC50 (−LogM),"A549 cells; A549, Lung",>4.5 −LogM
same,IC50,"A549 cells; K-Ras G12S, read-out: IC50, A549 cells",1.58 µM
same,IC50 (−LogM),"H1299 cells; h1299, Lung",>4.5 −LogM
same,effect on H1299 cells,"H1299 cells; mutant N-Ras, listed as Oncrasin-1",minimal effect; also recorded: not effective
same,IC50 (−LogM),"DLD1; DLD1, Colon",>4.5 −LogM
same,IC50 (−LogM),"CT116P53; CT116P53, Colon",>4.5 −LogM
same,IC50 (−LogM),"H2122; H2122, Lung",6.1 −LogM
same,IC50,"H2122; K-Ras G12C, read-out: IC50, H2122",0.79 µM
same,effect on H212 cells,"H2122; lung cancer cell line, G12C",highly effective
same,IC50,"Hct116; G13D mutation in K-Ras, read-out: IC50, HCT116",3.1 µM
same,IC50 (−LogM),"Hct116; Hct116, Colon",5.5 −LogM
same,IC50 (−LogM),"H2009; H2009, Lung",>4.5 −LogM
same,IC50 (−LogM),Heb46,6.1 −LogM
same,IC50 (−LogM),H23,>4.5 −LogM
same,IC50 (−LogM),"H1933; H1933, Lung",>4.5 −LogM
same,IC50 (−LogM),"AsPC-1; ASPC1, Pancrease",5.5 −LogM
same,IC50,"AsPC-1; K-Ras G12D mutation, read-out: IC50, AsPC-1",0.04 µM
